Experimental findings from PubChem BioAssay AID179 (DTP/NCI, 2004) are described below.

A word on the EC50: it is the concentration that produces a half-maximal response. As usually defined, the IC50 is the point on the concentration scale where inhibition reaches its midpoint. High values mean a need for much substance, low ones inhibition by little substance.

The source made the active and inactive calls.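 How the source made its calls: active means compounds giving half or more protection of infected cells from virus-caused growth loss, again on retest; inactive means the rest.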 Where a SMILES comes first, the peptide text is derived from it. [ ]: non-standard residue; d: D form. The star is where a group is joined. Phe(4-NO2) = N[CH](Cc1ccc([N+](=O)[O-])cc1)C(=O)O; Boc = CC(C)(C)OC(=O)*; Bn = c1ccc(C*)cc1

This experiment concerns CEM cells HIV-1 protection, formazan growth assay. In words: NCI AIDS Antiviral Assay. As to conditions: for IC50: measured here: growth of uninfected CEM cells. The method in brief:
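Five concentrations of each compound were applied to infected and uninfected human CEM cells. Protection from HIV-1 was judged from growth measured with a soluble formazan assay.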

`COc1ccccc1NC(=O)C1=C(C)NC(C)=C(C(=O)Nc2ccccc2OC)C1c1ccc(N(C)C)cc1`: the EC50 is > 42.7 µM and the IC50 stood at 29.5 µM.

In the case of `COC(=O)/C=C(\C=C/C(=O)O)C(=O)O`, the EC50 was > 1260 µM and the IC50 stood at 251 µM.

`CC(NC(=O)C(Cc1ccc([N+](=O)[O-])cc1)NC(=O)C(N)CCCCN)C(=O)NC(Cc1ccc([N+](=O)[O-])cc1)C(N)=O` (stereo not given) (H-K[Phe(4-NO2)]A[Phe(4-NO2)]-NH2; configuration not given here): the EC50 is > 200 µM and the IC50 was > 200 µM.

For `Cc1noc2c1NC(=O)OCC2`, the EC50 is 11 µM and the IC50 turned out to be 490 µM.

In the case of `NC(=O)c1ncn(Cc2ccccc2)c1CNC(N)=S`, the result was inactive.

On to `O=C(Cc1ccccc1)NN1C(=O)/C(=C\c2ccccc2)SC1=Nc1ccccc1`, for which the EC50 is > 120 µM and the concentration for half-maximal inhibition (IC50) is > 120 µM.

In the case of `CC1c2ccccc2NC(=O)N1N1CCOCC1` (stereo not given), the EC50 is > 200 µM and the IC50 was > 200 µM.

In the case of `O=C1C(O)=C(c2ccccc2C(=O)O)C(=O)C(O)=C1c1ccccc1C(=O)O`, the EC50 was > 110 µM and the IC50 is > 110 µM.

Consider `Cc1ccc2oc(=O)c(C#N)c(/C=C/c3cccc(Br)c3)c2c1`, for which the EC50 was > 100 µM and the IC50 is > 100 µM.

`O=C(CCCN1CCC(Nc2ccc(F)cc2)(c2nnnn2C2CCCCC2)CC1)c1ccc(F)cc1`: the EC50 is > 200 µM and the half-inhibitory concentration (IC50) came to 16.6 µM.

As to `Nc1ccc(S(=O)(=O)S(=O)(=O)c2ccc(N)cc2)cc1`, the EC50 is > 200 µM and the IC50 stood at 112 µM.

For `O=C(O)CSc1n[nH]c(=S)c2nc[nH]c12`, the EC50 is > 537 µM and the IC50 is > 537 µM.

In the case of `C=CC1C(C[C@@H]2c3cc(O)c(O)cc3CCN2C(C)=O)C(C(=O)OC)=CO[C@H]1OC1OC(CO)C(O)C(O)C1O` (stereo not given in full), the result was inactive.

Regarding `[Cl][Pd][Cl].[NH-]CCN1CC1`, the EC50 is > 200 µM and the half-maximal inhibitory concentration (IC50) was 12.3 µM.

For the compound `CCC(C)C(N)C(=O)NC(C(=O)NC(CO)C(=O)NC(C)C(=O)NC(CO)C(=O)NC(C(=O)NC(CCCCN)C(=O)NC(CCCCN)C(=O)NC(CO)C(=O)NC(Cc1ccccc1)C(=O)O)C(C)CC)C(C)CC` (stereo not given) (H-IISASIKKSF-OH; configuration not given here), the outcome was inactive.

With `O=C1/C(=C\c2ccc(Cl)cc2Cl)Sc2scc(-c3ccc(O)c(O)c3)[n+]21`, the EC50 is > 200 µM and the half-maximal inhibitory concentration (IC50) turned out to be 6.31 µM.

Turning to `Cc1nc(NCCNCCO)nc2c1C(=O)Nc1ccccc1N2`, the EC50 was > 200 µM and the 50% inhibitory concentration (IC50) was determined as 32.4 µM.

Take `[Pt].c1ccc([PH+](c2ccccc2)c2ccccc2)cc1.c1ccc([PH+](c2ccccc2)c2ccccc2)cc1.c1ccc([PH+](c2ccccc2)c2ccccc2)cc1.c1ccc([PH+](c2ccccc2)c2ccccc2)cc1`: the EC50 was > 11 µM and the IC50 is > 11 µM.

Take `c1ccc(CN(Cn2cccn2)Cn2cccn2)nc1`: the outcome was inactive.

In the case of `CC(=O)C1CC2=C(CCC1=O)CCC1(CC2)OCCO1` (stereo not given), the result was inactive.

For the compound `N#Cc1c(-c2ccc(Cl)c(Cl)c2)c(-c2ccc(Cl)c(Cl)c2)nn(CCO)c1=O`, the EC50 was > 41.7 µM and the IC50 was found to be 0.759 µM.

As to `Cc1cc(NS(=O)(=O)c2ccc(NC(=O)c3ccc(Cl)c4c(Nc5ccc(S(N)(=O)=O)cc5)c5ccccc5nc34)cc2)no1`, the EC50 was > 38.9 µM and the IC50 turned out to be 26.3 µM.

`O=C(O)C1C(c2ccccc2)C=CC(c2ccccc2)C1C(=O)O` (stereo not given): the outcome was inactive.

Consider `COc1ccc(C=C(C(=O)c2ccccc2)C(=O)c2ccccc2)cc1`, for which the EC50 is > 20.9 µM and the IC50 was > 20.9 µM.

On to `CN(C)C1C(=O)C(C(=O)NCNCCC(=O)O)=C(O)C2(O)C(=O)C3=C(O)c4c(O)cccc4C(C)(O)C3CC12` (stereo not given), for which the EC50 was > 11.2 µM and the IC50 is > 11.2 µM.

With `CNC(=O)Oc1c(Cl)cccc1SSc1cccc(Cl)c1OC(=O)NC`, the EC50 is > 200 µM and the IC50 came to 19.5 µM.

For the compound `COc1ccc(C2=C/C(=C3/C(=O)C=C(C)OC3=O)SS2)cc1`, the EC50 was > 100 µM and the 50% inhibitory concentration (IC50) is > 100 µM.

With `CN1CC2(CCCCC2)C(O)C12C=CCCC2` (stereo not given), the EC50 is > 380 µM and the IC50 is > 380 µM.

`OCC(O)C(O)C(O)c1nn(-c2ccc(F)cc2)c2nc3cc(Cl)c(Cl)cc3nc12` (stereo not given): the outcome was inactive.

In the case of `COc1ccc(C(c2c(O)c3ccccc3n(C)c2=O)c2c(O)c3ccccc3n(C)c2=O)cc1`, the EC50 was > 8.13 µM and the IC50 was > 8.13 µM.

Turning to `C[C@]12C=CC(=O)C=C1[C@@H](F)C[C@H]1[C@@H]3CC[C@](O)(C(=O)CO)[C@@]3(C)C[C@H](O)[C@@]12F`, the outcome was inactive.

Turning to `COc1cc(NCCN(CC(C)C)C(C)C(C)C)c2ncccc2c1` (stereo not given), the EC50 was > 200 µM and the concentration for half-maximal inhibition (IC50) was found to be 37.2 µM.

In the case of `CCCCCCCCCCCCCCCCCCCCCCCCCCCCCC=C(c1cc(Cl)c(OC)c(C(=O)OC)c1)c1cc(Cl)c(OC)c(C(=O)OC)c1`, the EC50 is > 2.24 µM and the half-maximal inhibitory concentration (IC50) was > 2.24 µM.

Turning to `CN1C(=O)NC2(O)c3ccccc3C(=O)C12O` (stereo not given), the EC50 was > 1070 µM and the IC50 is > 1070 µM.

In the case of `CC1OC(OC2C(Oc3ccc4c(=O)c(-c5ccc(O)c(O)c5O)coc4c3)OC(CO)C(O)C2O)C(O)C(O)C1O` (stereo not given), the EC50 is > 200 µM and the half-inhibitory concentration (IC50) turned out to be 67.6 µM.

Turning to `CCC/C=C/C=C/C(=O)OC1C(C)C2(O)C3C=C(C)C(=O)C3CC(COC(C)=O)=CC2C2C(C)(C)C12OC(=O)C(C)C` (stereo not given), the EC50 is 0.977 µM and the 50% inhibitory concentration (IC50) is 1.02 µM.

For the compound `Nc1ncnc2c1ncn2C1CC(CO)CO1` (stereo not given), the 50% effective concentration (EC50) was 209 µM and the IC50 was found to be 214 µM.

As to `O=C(Nc1ccccc1)C(c1ccccc1)N(Nc1ccccc1)c1ccccc1` (stereo not given), the result was inactive.

Turning to `COc1ccc(/C=c2\sc3nc(-c4ccccc4)nn3c2=O)cc1`, the EC50 was 182 µM and the IC50 was 195 µM.

With `CC(C)C1=CC23CCC4C(C)(C(=O)O)CCCC4(C)C2CC1C1C(=O)N(c2ccc(C(=O)O)cc2)C(=O)C13` (stereo not given), the EC50 is > 45.7 µM and the IC50 is > 45.7 µM.

For the compound `Cn1c(=O)c2c(n(C)c1=O)n1c(SCc3ccccc3)nnc1n2C`, the EC50 is > 200 µM and the 50% inhibitory concentration (IC50) worked out at 182 µM.

Consider `COc1ccc(-c2cc(-c3ccc(C)cc3)n(C3OC(COC(C)=O)C(OC(C)=O)C(OC(C)=O)C3OC(C)=O)c(=S)c2C#N)cc1` (stereo not given), for which the EC50 was > 200 µM and the half-maximal inhibitory concentration (IC50) was > 200 µM.

For the compound `C/C=C1\CN2CCc3c([nH]c4ccccc34)C2C=C1CCO` (stereo not given), the EC50 was > 170 µM and the IC50 is > 170 µM.

Take `Cc1c([O-])c([O-])c(C)c2c1OCO2.[C-]#[O+].[C-]#[O+].[C-]#[O+].[Re].c1ccc([PH+](c2ccccc2)c2ccccc2)cc1`: the EC50 was > 15.1 µM and the IC50 was determined as 6.46 µM.

Take `N#C/C(=C/c1ccsc1)C(=O)c1ccccc1`: the EC50 was > 110 µM and the concentration for half-maximal inhibition (IC50) is > 110 µM.

On to `CN(C1=NCCO1)c1cccc2c1CCCC2`, for which the EC50 was > 200 µM and the IC50 worked out at 4.47 µM.

In the case of `COc1cccc2c1c1ccc3c(c1n2C)C(=O)C=CC3=O`, the EC50 is > 17.8 µM and the concentration for half-maximal inhibition (IC50) turned out to be 7.08 µM.

Take `O=C(O)C1Cc2ccccc2OC1=O` (stereo not given): the EC50 is > 200 µM and the half-maximal inhibitory concentration (IC50) is > 200 µM.

For `CN1C(=O)C23CCCN2C(=O)C1(C)SC(=N)S3` (stereo not given), the EC50 was > 200 µM and the IC50 is > 200 µM.

As for `O=S(=O)(F)c1cc(C[P+](c2ccccc2)(c2ccccc2)c2ccccc2)ccc1Cl`, the EC50 is > 200 µM and the 50% inhibitory concentration (IC50) was determined as 91.2 µM.

For the compound `CN(C)CCN(C(=Nc1ccccc1)N1CCCC1)c1ccccc1`, the EC50 was > 200 µM and the IC50 is 8.32 µM.

As to `CN1C(=O)C(O)(CC(=O)c2ccccc2)c2ccccc21` (stereo not given), the EC50 is > 200 µM and the half-maximal inhibitory concentration (IC50) worked out at 35.5 µM.

For `CN(C)CCNC(=O)Cn1cnc2cccc([N+](=O)[O-])c2c1=O`, the EC50 was > 200 µM and the half-inhibitory concentration (IC50) is > 200 µM.

In the case of `N#Cc1c(N)c(C(=O)Nc2ccc(S(N)(=O)=O)cc2)n2c1CCC2`, the EC50 is > 200 µM and the IC50 is > 200 µM.

In the case of `CN(C)/C=C1\CCc2ccc([N+](=O)[O-])cc2C1=O`, the EC50 is > 200 µM and the IC50 was 93.3 µM.

For the compound `Cc1ccc(NC(=O)C2C(=O)N(c3ccc(C)c(C)c3)C(=O)/C2=N\NC(N)=O)cc1C` (stereo not given), the outcome was inactive.

For `O=C1c2ccccc2C(=O)c2c1ccc1conc21`, the outcome was inactive.

As for `O=C(O)/C=C/c1ccc(/C=C/C(=O)O)cc1`, the EC50 is > 200 µM and the IC50 was > 200 µM.

On to `N=C(N)SCc1ccc2c(c1)Sc1ccccc1O2`, for which the EC50 was > 200 µM and the concentration for half-maximal inhibition (IC50) was 11.7 µM.

With `CC(=O)OCC1OC(n2c(C)c(C)cc(C#N)c2=S)C(OC(C)=O)C(OC(C)=O)C1OC(C)=O` (stereo not given), the EC50 was > 200 µM and the half-maximal inhibitory concentration (IC50) was > 200 µM.

With `Cn1c(=O)[nH]n(C2Cn3c(=O)n(C)c(=O)n3-c3ccccc32)c1=O` (stereo not given), the EC50 is > 200 µM and the IC50 is > 200 µM.

Turning to `Cc1cc(Cl)cc2c1NC(=O)C2(O)CC(=O)c1ccco1` (stereo not given), the EC50 was > 117 µM and the IC50 worked out at 63.1 µM.

In the case of `COC(=O)C(CC(C)C)NC(=O)C(C)NC(=O)C(Cc1ccc(OCc2ccccc2)cc1)NC(=O)C(COCc1ccccc1)NC(=O)OC(C)(C)C` (stereo not given) (Boc-S(Bn)Y(Bn)AL-OMe; configuration not given here), the EC50 is > 200 µM and the IC50 came to 83.2 µM.

As for `CCOC(=O)CN=C1NNS(=O)(=O)c2ccccc21`, the EC50 is > 200 µM and the IC50 came to 110 µM.

As for `N=C1SCC(=O)N1CCN1C(=N)SCC1=O`, the EC50 is > 79.4 µM and the IC50 was > 79.4 µM.

For the compound `CC1OC2CC(=O)OC2C2=C1C(=O)c1c(O)cccc1C2=O` (stereo not given), the EC50 is > 2 µM and the IC50 was found to be 0.0282 µM.

In the case of `Cc1cc(Br)c(O)c(-c2cscn2)c1`, the EC50 was > 200 µM and the half-inhibitory concentration (IC50) was 11.2 µM.

Turning to `CN1CCC23CCCC[C@H]2C1CC1=C3CC(=O)CC1` (stereo not given in full), the EC50 is > 692 µM and the IC50 was 263 µM.
